Results published in patent US20220127232A1, “HISTONE ACETYLTRANSFERASE MODULATORS AND COMPOSITIONS AND USES THEREOF” (The Trustees of Columbia University in the City of New York, priority 2019, published 2022).
pEC50: −log10 of the molar value. Entries after “also recorded” stand apart in the source; their conditions may differ. Read-outs that look alike come from different tables or passages of the source.

Columns and labels:
[1] = cited from earlier work
p300 = p300 (Homo sapiens, UniProt Q09472); experiment: Histone Acetyltransferase (HAT) in vitro acetylation assay, western blot of H3K27ac / H3K18ac; type: biochemical; details: compound in DMSO, EC50 for activators
Description: The aim of the in vitro acetylation assay is to measure the enzymatic activity of the various compounds towards p300.
First, the drug is prepared:
Second, dilute p300 in AM1 buffer to a concentration of 40 ng/μL (final concentration in the reaction 20 ng/μL). This is accomplished by diluting 1 μL of p300 (at 0.4 μg/μL) into […] of AM1 buffer.
Third, prepare the Master Mix. Prepare the Master Mix in low protein binding tubes (ThermoFisher Cat. No. 90410), 20 μL system.
Incubate reactions at 30° C. for 30 minutes.
Incubate reactions at 30° C. for 1 hour.
Fourth, perform the western blot assay. • Add 6.7 μL of Laemmli Sample Buffer 4× (Bio-Rad Laboratories Cat. No. 161-0737) for each reaction and boil samples at 95° C. for 5 min. • Charge 10 μL for each sample in 2 Tris Glycine 4-15% gels (Bio-Rad Laboratories Cat. No. 456-1086). Running Buffer: Tris-Glycine 1× (pour in the cell up to the writing “2 gels”). • Run at 90 V for 1 hour (until the gel front reaches the green line of cell). • Semi-dry transfer with Trans-Blot® Turbo™ Blotting System from Bio-Rad Laboratories (Trans-Blot® Turbo™ RTA midi PVDF transfer kit Cat. No1704275). • Activate PVDF membrane in methanol for 5 minutes and then wet in Trans-Blot® Turbo™ transfer buffer. • Wet stacks in transfer buffer. • Transfer at 23 V 1.3 A for 7 minutes. • Blocking buffer: 5% Non-Fat milk in TBST (tween 0.1%) 1 hour at room temperature. • Cut the membranes to get Ac-His 3 at 17 kDa and p300 at 300 kDa. • Incubate with primary antibodies overnight at 4° C. • The day after, make 3 washes in TBST (Tween 0.1%) of 10 minutes. • Incubate with secondary antibody at room temperature for 1 hour. • Make 3 washes in TBST (Tween 0.1%) of 5 minutes. • Incubate membranes with ECL (SuperSignal West Dura Extended Duration Substrate from ThermoFisher) for 5 minutes at room temperature. • Acquire the image with ChemiDoc Odyssey Fc 2 minutes.
To detect total H3 (loading control), strip the membranes with Restore™ Western Blot Stripping Buffer according to the manufacturer protocol.
Various compounds were tested for enzymatic activity with respect to Lys 18 and Lys 27. EC50 is indicated for Activators and IC50 for inhibitors respectively.
FIGS. 1A to 25B are graphs showing the lysine residue acetylation as a function of concentration for the compounds set forth in Table 3. The shaded area corresponds to the average values of lysine residue acetylation (continuous line) and their standard error range measured in the absence of compound and DMSO. The number of replicates is represented by “n”.

[2] = test system: hippocampal slices from WT mice; experiment: Long-term potentiation (LTP) in hippocampal slices perfused with oTau or oAβ; type: cell-based; details: slices perfused with compound and either oTau (50 nM) or oAβ (200 nM)
From the text: Synaptic dysfunction is a major hallmark of AD (Histol Histopathol, 1995. 10(2): p. 509-19; herein incorporated by reference in its entirety). An aspect of the drug screening protocol can include a measurement of the effect of compounds onto synaptic function. Amyloid-beta (Aβ) is a toxic peptide that is thought to underlie subtle amnesic changes occurring at early stages of Alzheimer's disease. It impairs both memory and its electrophysiological surrogate, long-term potentiation (LTP). LTP can be examined because it is a type of synaptic plasticity thought to underlie learning and memory. RA010115 can rescue the Aβ-induced reduction of LTP, and other compounds can also be screened to identify those that can re-establish normal LTP. The compounds can be applied for 20 min. Controls can be performed on slices in the absence of Aβ, and mice treated with compound. Tau is another peptide that is involved in cell to cell communication, and impairs both memory and LTP in animal models of AD and other tauopathies. FIG. 26 is a graph showing that RA010115 rescues oligomeric Tau (oTau)- and oligomeric Aβ (o Aβ)-induced LTP deficits. LTP was impaired in hippocampal slices from WT mice perfused with oTau (50 nM) and oAβ (200 nM), whereas there was no impairment in slices treated with RA10115 or vehicle. LTP was restored in slices perfused with RA010115 and either oTau or oAβ. The horizontal solid bar represents oAβ and oTau perfusion while the horizontal dashed bar represents RA010115. The three arrows correspond to the theta-burst stimulation. […]

[3] = Stability in human liver microsomes; type: in vitro ADME
Description: Some compounds were tested for stability in human liver microsomes as shown below in Table 2.
Mixed-gender human liver microsomes (Lot #1010420) were purchased from XenoTech. The reaction mixture, minus NADPH, was prepared as described below. The test article was added into the reaction mixture at a final concentration of 1 μM. The control compound, testosterone, was run simultaneously with the test article in a separate reaction. An aliquot of the reaction mixture (without cofactor) was equilibrated in a shaking water bath at 37° C. for 3 minutes. The reaction was initiated by the addition of the cofactor, and the mixture was incubated in a shaking water bath at 37° C. Aliquots (100 μL) were withdrawn at 0, 10, 20, 30, and 60 minutes. Test article and testosterone samples were immediately combined with 400 μL of ice-cold 50/50 acetonitrile (ACN)/H2O containing 0.1% formic acid and internal standard to terminate the reaction. The samples were then mixed and centrifuged to precipitate proteins. All samples were assayed by LC-MS/MS using electrospray ionization. Analytical conditions are outlined in Appendix 1. The peak area response ratio (PARR) to internal standard was compared to the PARR at time 0 to determine the percent remaining at each time point. Half-lives and clearance were calculated using GraphPad software, fitting to a single-phase exponential decay equation.
Liver Microsomes 0.5 mg/mL NADPH (cofactor) 1 mM
Potassium Phosphate, pH 7.4 100 mM
Intrinsic clearance (CLint) was calculated based on CLint=k/P, where k is the elimination constant and P is the protein concentration in the incubation.

p300, sequence (Q09472 whole entry, species assumed): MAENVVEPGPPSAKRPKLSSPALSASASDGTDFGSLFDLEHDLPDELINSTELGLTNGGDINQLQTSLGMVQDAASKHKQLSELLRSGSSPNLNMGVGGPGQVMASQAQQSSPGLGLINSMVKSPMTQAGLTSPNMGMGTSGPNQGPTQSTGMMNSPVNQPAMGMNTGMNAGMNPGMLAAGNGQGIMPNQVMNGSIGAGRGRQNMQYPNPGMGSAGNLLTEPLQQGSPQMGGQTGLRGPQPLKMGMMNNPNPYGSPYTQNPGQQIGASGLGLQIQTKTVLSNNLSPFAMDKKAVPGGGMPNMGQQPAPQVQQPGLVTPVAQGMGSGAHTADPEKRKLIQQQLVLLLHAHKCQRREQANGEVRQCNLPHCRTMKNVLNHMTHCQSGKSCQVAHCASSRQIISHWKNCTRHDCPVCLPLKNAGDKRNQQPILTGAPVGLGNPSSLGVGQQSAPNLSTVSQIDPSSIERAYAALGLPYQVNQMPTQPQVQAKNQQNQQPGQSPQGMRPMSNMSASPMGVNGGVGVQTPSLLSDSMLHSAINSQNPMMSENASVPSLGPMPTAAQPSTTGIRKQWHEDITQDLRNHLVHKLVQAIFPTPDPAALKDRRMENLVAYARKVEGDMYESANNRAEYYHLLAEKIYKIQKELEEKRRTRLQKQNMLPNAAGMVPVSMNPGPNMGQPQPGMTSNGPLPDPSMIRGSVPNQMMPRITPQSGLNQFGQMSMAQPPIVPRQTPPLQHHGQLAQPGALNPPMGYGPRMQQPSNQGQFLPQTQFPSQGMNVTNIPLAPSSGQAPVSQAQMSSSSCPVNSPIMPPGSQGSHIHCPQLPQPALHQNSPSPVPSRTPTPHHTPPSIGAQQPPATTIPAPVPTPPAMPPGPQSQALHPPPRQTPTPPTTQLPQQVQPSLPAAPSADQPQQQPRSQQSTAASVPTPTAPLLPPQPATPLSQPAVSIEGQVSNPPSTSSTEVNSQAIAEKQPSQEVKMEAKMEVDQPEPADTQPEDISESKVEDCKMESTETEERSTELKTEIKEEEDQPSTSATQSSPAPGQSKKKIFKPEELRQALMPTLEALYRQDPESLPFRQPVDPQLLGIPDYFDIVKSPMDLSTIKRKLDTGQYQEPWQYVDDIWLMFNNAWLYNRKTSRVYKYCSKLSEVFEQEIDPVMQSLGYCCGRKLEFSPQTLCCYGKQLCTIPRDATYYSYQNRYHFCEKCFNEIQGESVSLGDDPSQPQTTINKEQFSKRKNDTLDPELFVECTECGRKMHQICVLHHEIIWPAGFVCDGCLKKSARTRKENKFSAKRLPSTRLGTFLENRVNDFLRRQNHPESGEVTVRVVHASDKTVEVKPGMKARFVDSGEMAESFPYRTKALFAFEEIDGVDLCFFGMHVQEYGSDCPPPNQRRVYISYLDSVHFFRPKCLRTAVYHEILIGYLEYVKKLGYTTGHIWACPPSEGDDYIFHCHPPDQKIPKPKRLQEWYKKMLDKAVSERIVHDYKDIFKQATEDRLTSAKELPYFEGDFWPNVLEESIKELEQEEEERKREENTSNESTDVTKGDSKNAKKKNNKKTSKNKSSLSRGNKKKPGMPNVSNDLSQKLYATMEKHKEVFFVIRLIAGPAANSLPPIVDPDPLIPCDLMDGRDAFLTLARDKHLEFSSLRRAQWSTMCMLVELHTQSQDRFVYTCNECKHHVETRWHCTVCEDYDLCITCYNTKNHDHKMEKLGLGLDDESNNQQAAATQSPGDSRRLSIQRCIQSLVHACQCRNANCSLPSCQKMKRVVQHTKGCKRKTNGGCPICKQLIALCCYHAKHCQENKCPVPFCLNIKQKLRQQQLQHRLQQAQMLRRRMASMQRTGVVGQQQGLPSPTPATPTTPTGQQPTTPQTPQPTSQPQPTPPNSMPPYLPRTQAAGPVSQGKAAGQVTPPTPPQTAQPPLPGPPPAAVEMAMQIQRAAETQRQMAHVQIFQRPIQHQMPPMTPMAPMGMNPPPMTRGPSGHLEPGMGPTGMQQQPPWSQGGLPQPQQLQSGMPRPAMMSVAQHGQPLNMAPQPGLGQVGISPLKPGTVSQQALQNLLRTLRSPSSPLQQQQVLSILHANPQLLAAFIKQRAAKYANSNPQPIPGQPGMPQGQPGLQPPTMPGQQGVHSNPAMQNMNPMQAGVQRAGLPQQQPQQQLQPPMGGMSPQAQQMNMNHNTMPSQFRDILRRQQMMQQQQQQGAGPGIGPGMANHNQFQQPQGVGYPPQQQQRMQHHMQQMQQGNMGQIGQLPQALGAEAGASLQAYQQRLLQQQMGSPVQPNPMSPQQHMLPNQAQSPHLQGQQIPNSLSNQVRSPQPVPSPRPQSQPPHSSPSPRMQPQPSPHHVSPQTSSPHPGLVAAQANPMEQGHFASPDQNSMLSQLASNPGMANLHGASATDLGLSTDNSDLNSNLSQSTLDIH

SMILES | Solubility [1] | pEC50 (p300; read-out: H3-Lys 18 EC50) | pEC50 (p300; read-out: H3-Lys 27 EC50) | oTau- and oAβ-induced LTP deficits [2] | microsomal CLint at 1 μM ([3]; both sexes, human, liver microsomes, pH 7.4, human liver microsomes, 1 μM, read-out: CLint) | half-life at 1 μM ([3]; both sexes, human, liver microsomes, pH 7.4, human liver microsomes, 1 μM, read-out: Half-life) | % Remaining of Initial (n = 1) 0 min ([3]; human liver microsomes, test article 1 μM, 0 min) | % Remaining of Initial (n = 1) 10 min ([3]; human liver microsomes, test article 1 μM, 10 min) | % Remaining of Initial (n = 1) 20 min ([3]; human liver microsomes, test article 1 μM, 20 min) | % Remaining of Initial (n = 1) 30 min ([3]; human liver microsomes, test article 1 μM, 30 min) | % Remaining of Initial (n = 1) 60 min ([3]; human liver microsomes, test article 1 μM, 60 min)
CCOc1ccccc1C(=O)Nc1ccc(Cl)c(C(F)(F)F)c1 [CTB] | insoluble |  |  |  |  |  |  |  |  |  | 
CCOc1cccc(OCCN(C)C)c1C(=O)Nc1ccc(Cl)c(C(F)(F)F)n1 [RA013915] |  | 7.14 | 7.24 | restored; also recorded: rescues | 43.2 µL/min/mg | 32.1 min | 100% | 79.6% | 63.8% | 52.4% | 27.6%
CCCCCCCCCCCCCCCc1cccc(OCC)c1C(=O)Nc1ccc(Cl)c(C(F)(F)F)c1 [CTPB] | insoluble |  |  |  |  |  |  |  |  |  | 
